Reference: patent US12616698B2, “Methods for reducing liver fat and for treating fatty liver disorders” (Corcept Therapeutics Incorporated, priority 2021, dated 2026)
“Also recorded” adds a separate entry of the source.

Test system: C57BL/6J male mice
Assay: AMLN diet NASH mouse model, once per day oral dosing
Assay type: in vivo
Conditions: 30 mg/kg/day orally once per day, 8 weeks
Protocol: Two studies were conducted in C57BL/6J male mice (n=12 per group) maintained on a diet high in fat (40%), cholesterol (2%) and fructose (20%; referred to as the AMLN diet: see, e.g., Tolbol et al., World Journal of Gastroenterology, 24(2):179-194 (2018)) for 42 weeks before dosing with miricorilant was initiated. In the first study, all animals ate the AMLN diet, and received either placebo, 30 mg/kg miricorilant, or 60 mg/kg mifepristone once per day orally. […] All animals received the AMLN diet for 42 weeks prior to receiving their first dose of study drug or placebo. 4 weeks prior to receiving that first dose, a liver biopsy and histological examination of biopsy tissue was performed for each animal; 3 weeks prior to receiving that first dose, animals were randomized into three groups: control, miricorilant, or mifepristone. […] At 56 days (week 8) after initiation of drug administration, plasma ALT, AST, triglycerides, total cholesterol, and miricorilant levels were measured, and animals were sacrificed, liver necropsies were performed, liver histological ((NAFLD Activity Score, Fibrosis Stage, steatosis (scored using hematoxylin and eosin staining (HE)), col1a (scored using immunohistochemistry (IHC)) and Galectin-3 (IHC)) and liver biochemical measurements (including liver triglycerides and total cholesterol) were made, and liver and plasma samples were obtained for genetic ((e.g., RNA sequencing) and other analyses.
Thus, in these studies, the mice were subjected to a liver biopsy approximately 4 weeks before initiation of dosing with miricorilant and only mice with confirmed fibrosis (fibrosis stage ≥1) and steatosis (score ≥2) were entered into the study. […] Body weight and food consumption were monitored throughout the study.
Liver samples were fixed in formalin, paraffin embedded and sections were stained with hematoxylin and eosin (H&E) and Sirius Red. Samples were scored for NAS and fibrosis stage using the clinical criteria outlined by Kleiner et al., Hepatology 41:1313-1321 (2005). […]

O=c1[nH]c(=O)c(Cc2cccc(C(F)(F)F)c2)c([C@H]2CC[C@H](c3ccccc3)CC2)[nH]1 [miricorilant, (E)-6-(4-Phenylcyclohexyl)-5-(3-trifluoromethylbenzyl)-1H-pyrimidine-2,4-dione]
NAFLD Activity Score (NAS) (AMLN diet, vs control (FIG. 7A)): reduced; also recorded: significant reductions; also recorded: either did not increase, or decreased
Hepatic ballooning portion of the NAFLD score (liver cell degeneration) (post- vs pre-study biopsy (FIG. 7B)): reduced
Fibrosis stage score, post-study compared to pre-study (none showed an increased score): some mice in the miricorilant group showed decreased post-study fibrosis stage score
